For data set [1], the target named is T1, purified recombinant enzyme Cdc25-C (MBP-Cdc25C) (Homo sapiens, UniProt P30307).
T1 construct: made in house
T1 sequence (P30307 1-473): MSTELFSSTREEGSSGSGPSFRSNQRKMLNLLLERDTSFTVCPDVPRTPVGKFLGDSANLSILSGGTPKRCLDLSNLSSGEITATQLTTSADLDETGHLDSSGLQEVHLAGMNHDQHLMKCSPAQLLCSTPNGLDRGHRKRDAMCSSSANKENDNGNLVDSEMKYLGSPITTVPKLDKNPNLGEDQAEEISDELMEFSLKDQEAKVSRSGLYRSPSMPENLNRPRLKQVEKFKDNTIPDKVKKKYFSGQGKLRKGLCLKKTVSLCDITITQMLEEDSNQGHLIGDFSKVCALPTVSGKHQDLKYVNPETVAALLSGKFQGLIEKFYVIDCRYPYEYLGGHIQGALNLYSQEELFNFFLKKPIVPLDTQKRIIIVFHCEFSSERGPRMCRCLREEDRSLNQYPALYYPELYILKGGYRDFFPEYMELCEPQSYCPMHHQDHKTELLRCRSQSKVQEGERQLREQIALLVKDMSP
Kind of data set: Measurement of the phosphatase activity of the purified recombinant enzyme Cdc25C (OMFP dephosphorylation, fluorescence). Format: biochemical. To be noted: OMFP 500 μM, 4 hours at 30° C. The procedure: i) Measurement of the Phosphatase Activity of the Purified Recombinant Enzyme Cdc25C
The phosphatase activity of the protein MBP-Cdc25C is evaluated by the dephosphorylation of 3-O-methylfluorescein-phosphate (OMFP) to 3-O-methylfluorescein (OMF) with a determination of the fluorescence at 475 nm of the reaction product. This test makes it possible to identify inhibitors of the recombinant enzyme cdc25. The preparation of the fusion protein MBP-Cdc25C is described in the Patent Application PCT WO 01/44467.
The reaction is carried out in 384-well plate format at a final volume of 50 μl. The protein MBP-Cdc25C (prepared as described above) is preserved in the following elution buffer: 20 mM Tris-HCl pH 7.4; 250 mM NaCl; 1 mM EDTA; 1 mM of dithiothreitol (DTT); 10 mM maltose. It is diluted to a concentration of 60 μM in the following reaction buffer: 50 mM Tris-HCl pH 8.2; 50 mM NaCl; 1 mM DTT; 20% glycerol. Measurement of the background noise is carried out with the buffer without the addition of the enzyme. The products are tested at decreasing concentrations starting from 40 μM. The reaction is initiated by the addition of an OMFP solution at 500 μM final (prepared extemporaneously from a 12.5 mM stock solution in 100% DMSO (Sigma #M2629)). After 4 hours at 30° C. in a single-use 384-well plate, the fluorescence measured at OD 475 nm is read using a Victor^2 plate reader (EGG-Wallac). The determination of the concentration inhibiting the enzyme reaction by 50% is calculated from three independent experiments. Only the values contained in the linear part of the sigmoid are retained for linear regression analysis.

Data set [2] relates to Mia-Paca2 lines (human pancreatic cancer cells). Nature of the data set: Anti-proliferative activity, WST1 colorimetric test, Mia-Paca2 cells. Format: cell-based. To be noted: MIA PaCa-2, 96 hours treatment, up to 10 μM, read-out: IC50 on the cell proliferation of the Mia-Paca2 lines. How it is done: (§1) ii) Characterization of Anti-Proliferative Activity:
(§2) By way of example, the effect of a treatment by the compounds of the examples described previously on two lines of human Mia-Paca2 and DU145 cells will be studied. The cell lines DU145 (human prostate cancer cells) and Mia-PaCa2 (human pancreatic cancer cells) were acquired from the American Tissue Culture Collection (Rockville, Md., USA). The cells placed in 80 μl of Dulbecco's Modified Eagle medium (Gibco-Brl, Cergy-Pontoise, France) completed with 10% foetal calf serum inactivated by heating (Gibco-Brl, Cergy-Pontoise, France), 50,000 units/l of penicillin and 50 mg/l streptomycin (Gibco-Brl, Cergy-Pontoise, France), and 2 mM of glutamine (Gibco-Brl, Cergy-Pontoise, France) were seeded on a 96-well plate on day 0. The cells were treated on day 1 for 96 hours at increasing concentrations of each of the compounds to be tested up to 10 μM. At the end of the of this period, quantification of the cell proliferation is evaluated by a colorimetric test based on the cleavage of the tetrazolium salt WST1 by the mitochondrial dehydrogenases in the viable cells leading to the formation of formazan (Boehringer Mannheim, Meylan, France). These tests are carried out in duplicate with 8 determinations per concentration tested. For each compound to be tested, the values included in the linear part of the sigmoid were retained for linear regression analysis and used in order to estimate the inhibitory concentration IC50. The products are solubilized in dimethylsulphoxide (DMSO) at to 10^−2M and finally used in culture with 0.1% DMSO.

For data set [3], the system named is DU-145 lines (human prostate cancer cells). Nature of the data set: Anti-proliferative activity, WST1 colorimetric test, DU145 cells. To be noted: 96 hours treatment, up to 10 μM, read-out: IC50 on the cell proliferation of the DU-145 lines. Format: cell-based. How it is done:
as §1, §2

Molecules are shown by their SMILES.

As a reminder, the melting point is the temperature, or range, at which the solid turns liquid.

Regarding `COc1ccc(C(=O)N2CCN(C(=O)c3nc4c(s3)C(=O)C=C(NCCCN(C)CCCNC3=CC(=O)c5sc(C(=O)N6CCN(C(=O)c7ccc(OC)cc7)CC6)nc5C3=O)C4=O)CC2)cc1` [Example 36, 5.5′-[(methylimino)bis(propane-3,1-diylimino)]bis(2-([4-(4-methoxybenzoyl)piperazin-1-yl]carbonyl)-1,3-benzothiazole-4,7-dione)], the melting point lay within 202 to 203 °C. Further, the IC50 in data set [1] was at most 1 µM. For the same molecule, the IC50 in data set [2] is at most 10 µM. In data set [3], the IC50 is at most 10 µM.

In turn, `CN(CCCNC1=CC(=O)c2sc(C(=O)N3CCN(C(=O)c4ccco4)CC3)nc2C1=O)CCCNC1=CC(=O)c2sc(C(=O)N3CCN(C(=O)c4ccco4)CC3)nc2C1=O` [Example 37, 5.5′-[(methylimino)bis(propane-3,1-diylimino)]bis(2-{[4-(2-furoyl)piperazin-1-yl]carbonyl}-1,3-benzothiazole-4,7-dione)] showed a melting point of 173 to 174 °C. The IC50 in data set [1] is at most 1 µM. Besides, the IC50 in data set [2] was at most 10 µM. The IC50 in data set [3] was at most 10 µM.

`COc1ccc(NC(=O)c2nc3c(s2)C(=O)C=C(NCCCN(C)CCCNC2=CC(=O)c4sc(C)nc4C2=O)C3=O)cc1` [Example 41, N-(4-methoxyphenyl)-5-{[3-(methyl{3-[(2-methyl-4,7-dioxo-4,7-dihydro-1,3-benzothiazol-5-yl)amino]propyl}amino)propyl]amino}-4,7-dioxo-4,7-dihydro-1,3-benzothiazole-2-carboxamide]: the melting point was in the range of 141 to 142 °C. The IC50 in data set [1] is at most 1 µM. Moreover, the IC50 in data set [2] is at most 10 µM. The IC50 in data set [3] is at most 10 µM.

Molecule `Cc1nc2c(s1)C(=O)C(NCCCN(C)CCCNC1=CC(=O)c3sc(C(=O)N4CCN(C(=O)C5CCCO5)CC4)nc3C1=O)=CC2=O` (centres unmarked) [Example 42, 5-{[3-(methyl{3-[(2-methyl-4,7-dioxo-4,7-dihydro-1,3-benzothiazol-6-yl)amino]propyl}amino)propyl]amino}-2-{[4-(tetrahydrofuran-2-ylcarbonyl)piperazin-1-yl]carbonyl}-1,3-benzothiazole-4,7-dione] came in with a melting point of 121 to 122 °C. Besides, the IC50 in data set [1] was at most 1 µM. Also, the IC50 in data set [2] was at most 10 µM. Moreover, the IC50 in data set [3] is at most 10 µM.

`CCNC(=O)c1nc2c(s1)C(=O)C=C(NCCCN(C)CCCNC1=CC(=O)c3sc(C)nc3C1=O)C2=O` [Example 43, N-ethyl-5-{[3-(methyl{3-[(2-methyl-4,7-dioxo-4,7-dihydro-1,3-benzothiazol-5-yl)amino]propyl}amino)propyl]amino}-4,7-dioxo-4,7-dihydro-1,3-benzothiazole-2-carboxamide] displayed a melting point of 107 to 108 °C. Moreover, in data set [1], the IC50 was at most 1 µM. Moreover, in data set [2], the IC50 is at most 10 µM. In addition, the IC50 in data set [3] was at most 10 µM.

Source of the values: patent US8017637B2, “Inhibitors of cdc phosphatases” (Ipsen Pharma S.A.S., priority 2004, dated 2011).
